For the assay, the system named is patients with hypercholesterolemia at high CV risk not adequately controlled with rosuvastatin (10 mg or 20 mg). Kind of assay: Example 3: randomized, double-blind trial, lipid efficacy of mAb316P add-on to rosuvastatin vs EZE add-on or rosuvastatin dose doubling. It counts as in vivo, human. To be noted: for Proportion of Patients Reaching LDL-C goal (%) / LDL-C W24 % change from baseline, LS mean (SE): week 24; for Proportion of Patients Reaching LDL-C goal (%): LDL-C <70 mg/dL very high risk or <100 mg/dL high risk; for LDL-C W24 % change from baseline, LS mean (SE): ITT population, treatment arm as labelled. As to the method: The present study was a randomized, double-blind, active-comparator, parallel-group study in patients at high CV risk with non-FH or heFH who are not adequately controlled with rosuvastatin (10 mg or 20 mg) with or without other lipid-modifying therapy (LMT) (excluding EZE). The study design is illustrated in FIG. 2. Patients who entered the study were taking either rosuvastatin 10 mg or rosuvastatin 20 mg. The former patients were randomized to 1 of 3 treatment arms (arms 1 to 3); the latter patients were randomized to 1 of 3 treatment arms (arms 4 to 6). The treatment arms are as follows:
(B) a double-blind treatment period of 24 weeks. […] The patient/caregiver administered subsequent injections outside of the clinic according to the dosing schedule. […] The last dose of daily oral study drugs was administered at week 24.
The first injection of study drug was administered at the clinical site, as soon as possible after the patient was randomized into the study. The patient was monitored at the clinical site for at least 30 minutes following the first injection. The patient/caregiver administered subsequent injections outside of the clinic, according to the dosing schedule.
The primary efficacy endpoint was the percent change in calculated LDL-C from baseline to week 24, which is defined as: 100× (calculated LDL-C value at week 24−calculated LDL-C value at baseline)/calculated LDL-C value at baseline. The baseline calculated LDL-C value was the last LDL-C level obtained before the first double-blind study drug injection. The calculated LDL-C at week 24 was the LDL-C level obtained within the week 24 analysis window and during the main efficacy period. The main efficacy period is defined as the time from the first double-blind study drug injection up to 21 days after the last double-blind study drug injection or up to the upper limit of the week 24 analysis window, whichever comes first.
Total-C, HDL-C, TG, ApoB, ApoA-1, and Lp(a) were directly measured by a central laboratory. LDL-C was calculated using the Friedewald formula. […] Non-HDL-C was calculated by subtracting HDL-C from the total-C. Ratio ApoB/ApoA-1 was calculated.
For clarification, the ITT analysis is defined for patients in the ITT population and includes all endpoint assessments in an analysis window, regardless of study treatment dosing status (i.e. includes post-treatment assessments). The on-treatment analysis is defined for patients in the mITT population and includes all endpoint assessments from the first double-blind study drug (capsule or injection, whichever comes first) up to 21 days after the last double-blind study drug injection or 3 days after the last capsule intake, whichever comes first (i.e. includes assessments in the efficacy treatment period).

The mark [1] stands for this setting: Week 4, baseline rosuvastatin 10 mg.
Setting [2] is: Week 8, baseline rosuvastatin 10 mg.
Where [3] appears, read: Week 12, baseline rosuvastatin 10 mg.
[4] abbreviates: Week 16, baseline rosuvastatin 10 mg.
[5] abbreviates: Week 24, baseline rosuvastatin 10 mg.
Setting [6] is: Week 4, baseline rosuvastatin 20 mg.
[7] abbreviates: Week 8, baseline rosuvastatin 20 mg.
The mark [8] stands for this setting: Week 12, baseline rosuvastatin 20 mg.
Where [9] appears, read: Week 16, baseline rosuvastatin 20 mg.
The mark [10] stands for this setting: Week 24, baseline rosuvastatin 20 mg.

As to “mAb316P + RSV 10: treatment arm: mAb316P 75/150 mg Q2W + rosuvastatin 10 mg daily”, the “LDL-C W24 % change from baseline, LS mean (SE)” value is given as −50.6%. Besides, under “Baseline Rosuvastatin 10 mg”, the “Proportion of Patients Reaching LDL-C goal (%)” value is 84.9%. Also, the “Calculated LDL-C LS mean (SE) Value” (Baseline, baseline rosuvastatin 10 mg) was 107.8 (3.8) mg/dL. Besides, under setting [1], the “Calculated LDL-C LS mean (SE) Value” is given as 49.9 (3.6) mg/dL; the “Calculated LDL-C LS mean (SE), % Change from Baseline” value is −53.1 (3.2) %; the “Calculated LDL-C LS mean (SE), Change from Baseline” value was −55.3 (3.6). In addition, under setting [2], the “Calculated LDL-C LS mean (SE) Value” was 49.4 (4.3) mg/dL; the “Calculated LDL-C LS mean (SE), % Change from Baseline” value is −53.8 (3.8) %; the “Calculated LDL-C LS mean (SE), Change from Baseline” value is recorded as −55.9 (4.3). Further, under setting [3], the “Calculated LDL-C LS mean (SE) Value” is 53.9 (4.1) mg/dL; the “Calculated LDL-C LS mean (SE), % Change from Baseline” value is −49.6 (4.1) %; the “Calculated LDL-C LS mean (SE), Change from Baseline” value was −51.3 (4.1). In addition, under setting [4], the “Calculated LDL-C LS mean (SE) Value” was 49.2 (4.7) mg/dL; the “Calculated LDL-C LS mean (SE), % Change from Baseline” value was −54.1 (4.7) %; the “Calculated LDL-C LS mean (SE), Change from Baseline” value is recorded as −56.1 (4.7). Also, under setting [5], the “Calculated LDL-C LS mean (SE) Value” is recorded as 53.0 (4.3) mg/dL; the “Calculated LDL-C LS mean (SE), % Change from Baseline” value is given as −50.6 (4.2) %; the “Calculated LDL-C LS mean (SE), Change from Baseline” value is −52.2 (4.3).

For the substance “mAb316P + RSV 20: treatment arm: mAb316P 75/150 mg Q2W + rosuvastatin 20 mg daily”, the “LDL-C W24 % change from baseline, LS mean (SE)” value is on record as −36.3%. The “Proportion of Patients Reaching LDL-C goal (%)” value (Baseline Rosuvastatin 20 mg) was found to be 66.7%. For the same substance, the “Calculated LDL-C LS mean (SE) Value” (Baseline, baseline rosuvastatin 20 mg) is 118.1 (4.5) mg/dL. Further, under setting [6], the “Calculated LDL-C LS mean (SE) Value” is 69.9 (3.4) mg/dL; the “Calculated LDL-C LS mean (SE), % Change from Baseline” value is recorded as −39.6 (5.2) %; the “Calculated LDL-C LS mean (SE), Change from Baseline” value was −47.1 (3.4). Under setting [7], the “Calculated LDL-C LS mean (SE) Value” is reported as 67.4 (4.3) mg/dL; the “Calculated LDL-C LS mean (SE), % Change from Baseline” value is reported as −40.6 (5.7) %; the “Calculated LDL-C LS mean (SE), Change from Baseline” value is on record as −49.6 (4.3). Further, under setting [8], the “Calculated LDL-C LS mean (SE) Value” is reported as 76.1 (4.2) mg/dL; the “Calculated LDL-C LS mean (SE), % Change from Baseline” value is listed as −32.3 (5.2) %; the “Calculated LDL-C LS mean (SE), Change from Baseline” value is given as −41.0 (4.2). Besides, under setting [9], the “Calculated LDL-C LS mean (SE) Value” is 64.5 (4.8) mg/dL; the “Calculated LDL-C LS mean (SE), % Change from Baseline” value is reported as −44.8 (6.2) %; the “Calculated LDL-C LS mean (SE), Change from Baseline” value is on record as −52.6 (4.8). Besides, under setting [10], the “Calculated LDL-C LS mean (SE) Value” was 73.5 (5.8) mg/dL; the “Calculated LDL-C LS mean (SE), % Change from Baseline” value is −36.3 (7.1) %; the “Calculated LDL-C LS mean (SE), Change from Baseline” value is recorded as −43.5 (5.8).

The values above are taken from patent US20150231236A1, “METHODS FOR TREATING PATIENTS WITH HYPERCHOLESTEROLEMIA THAT IS NOT ADEQUATELY CONTROLLED BY MODERATE-DOSE STATIN THERAPY” (Regeneron Pharmaceuticals, Inc., priority 2014, published 2015).
